Laboratory results published in US7371529B2, “Methods and compositions for modulating gluconeogenesis using PGC-1” (Dana-Farber Cancer Institute, Inc., priority 2001, dated 2008).

T1: HNF-4α (Homo sapiens, UniProt P41235)
T1 construct: made in house; host or cells: TNT reticulocyte lysate in vitro transcription/translation (Promega)
T1 sequence (P41235 1-474): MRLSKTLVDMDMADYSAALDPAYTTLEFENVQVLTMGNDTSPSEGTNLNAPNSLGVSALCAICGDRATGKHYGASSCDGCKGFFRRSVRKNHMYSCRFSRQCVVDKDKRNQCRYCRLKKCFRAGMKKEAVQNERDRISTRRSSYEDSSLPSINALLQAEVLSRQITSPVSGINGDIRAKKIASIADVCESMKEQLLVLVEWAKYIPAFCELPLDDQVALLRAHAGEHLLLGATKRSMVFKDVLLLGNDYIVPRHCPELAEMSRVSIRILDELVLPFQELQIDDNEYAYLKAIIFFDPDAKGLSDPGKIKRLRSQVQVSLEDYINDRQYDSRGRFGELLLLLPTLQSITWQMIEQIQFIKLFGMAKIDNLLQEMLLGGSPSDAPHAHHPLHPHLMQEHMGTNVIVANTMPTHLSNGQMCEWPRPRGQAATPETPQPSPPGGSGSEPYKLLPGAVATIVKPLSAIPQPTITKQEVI

B1: GST-PGC-1 (amino acids 1-190): GST fusion protein of amino acids 1-190 of PGC-1 (SEQ ID NO:2) (protein)
chain: MAWDMCSQDSVWSDIECAALVGEDQPLCPDLPELDLSELDVNDLDTDSFLGGLKWCSDQSEIISNQYNNEPANIFEKIDEENEANLLAVLTETLDSLPVDEDGLPSFDALTDGAVTTDNEASPSSMPDGTPPPQEAEEPSLLKKLLLAPANTQLSYNECSGLSTQNHAANHTHRIRTNPAIVKTENSWSN
modifications: left off: a dimerising Fc or GST

Key:
[1] = tested on: PGC-1 protein, glucose-6-phosphatase and PEPCK mRNA; experiment: Adenovirus infusion in Wistar rats, liver immunoblot and Northern; type: in vivo; settings: rat liver, adenoviral PGC-1
Experimental: Male Wistar rats (Charles River) were fed with standard laboratory food and weighed 300-350 g at the time of the studies. Animals were anesthetized by injection of 0.1 ml per 100 g body mass of a solution containing 25 mg/ml of xylazine (Phoenix Scientific) and 0.5 mg/ml of acepromazine (Fermenta Animal Health). CMV-GFP and CMV-PGC-1 adenoviruses were purified by CsCl gradient centrifugation as described in Becker, T. et al. (1994) Methods Cell Biol. 43:161-189. Pure recombinant virus (1×10^12 plaque forming units), suspended in 0.5 ml of phosphate buffered saline (PBS), was injected into anesthetized rats through the tail vein. Animals were allowed to recover and were fed standard food ad libitum. Five days after adenovirus infusion, tail vein blood was collected at 14:00 for measurement of glucose concentration, using a β-glucose analyzer (HemoCue AB). After the measurement, animals were sacrificed. Blood samples were collected from the heart, centrifuged at 1300 g for 15 minutes at 4° C. in 15 ml centrifuge tubes containing 50 μl of 0.4 M EDTA, and stored at −20° C. before measurement of insulin concentrations with a rat insulin specific radioimmunoassay kit (Linco Research). Liver samples were collected, snap frozen in liquid nitrogen, and stored at −80° C. Aliquots of frozen liver samples were processed for northern blot or immunoblot analysis. […]

[2] = tested on: G6 Pase promoter; experiment: G6 Pase promoter-luciferase reporter in SV40 transformed hepatocytes; type: cell-based
Experimental: PGC-1 and/or HNF-4α were cotransfected into SV40 transformed hepatocytes, and the ability to coactivate the glucose-6-phosphatase (G6 Pase) promoter was determined using a luciferase reporter gene. Experiments were performed in duplicate.

[3] = tested on: gluconeogenic, ketogenic, and beta-oxidation genes; experiment: Gene induction in control (floxed) or HNF-4α null primary hepatocytes; type: cell-based; settings: presence and absence of HNF-4α
Excerpt: The ability of PGC-1 to induce mRNA expression of gluconeogenic, ketogenic, and beta-oxidation genes was examined in cells lacking HNF-4α. Control (floxed) or HNF-4α null cells (primary hepatocytes) were infected with adenoviruses containing GFP (control) or PGC-1 and were either untreated, serum-starved, or treated with dexamethasone and cAMP.

[4] = tested on: PEPCK promoter; experiment: PEPCK promoter-luciferase reporter assay in Fao hepatoma cells; type: cell-based, rat
Experimental: (§1) NIH 3T3 or Fao hepatoma cells were cultured in 10% FBS-RPMI and transfected at 70-90% confluency using Fugene 6 (Roche). The ratio of DNA:Fugene was 1:2. Culture medium was changed after 24 hours. Cells were collected 48 hours after transfection and β-galactosidase and luciferase assays were performed. Transfections were performed in duplicate and repeated at least twice.
The ability of PGC-1 to activate the PEPCK-promoter (using a luciferase reporter gene) in hepatoma cells was examined. Fao rat hepatoma cells were maintained in 10% FBS-RPMI and transfected in a 6 well format with 200 ng of pPL32-PEPCK-luciferase (or pGL3-PEPCK-luciferase), 100 ng CMV β-galactosidase, and […] of pCMV or pCMV-PGC-1 per well. Cells were harvested for luciferase assays 48 hours after transfection, and the readings were normalized by β-galactosidase activity. […] In the transient transfection assays described above, PGC-1 activated the wild-type PEPCK promoter-reporter gene by approximately 10-fold (FIG. 4).
To identify the regulatory elements mediating the effect of PGC-1 on this promoter, mutant constructs were utilized in which various regulatory elements within the PEPCK-luciferase reporter construct were substituted by a yeast Gal4 DNA binding element (FIG. 1; Wang, J. C. et al. (1999) Mol. Endocrinol. 13:604-618). […] However, mutation of the AF1 or AF3 site (or both) each reduced the PGC-1-mediated activation by 50-60%; a combination of the AF1-to-Gal4 substitution and additional block mutations in the GR binding sites (GR1, GR2) led to a small but significant further decrease. […] A replacement of the P3 (I) site, an element shared by the cAMP and thyroid hormone response units, by the Gal4 DNA binding element caused a modest (25%) reduction in the PGC-1 mediated activation of the PEPCK reporter. […] It also appears that there are other unidentified regulatory elements on the PEPCK promoter through which PGC-1 can produce a partial activation.
The AF1 and AF3 sites are both DR-1 type sequences that can bind several nuclear receptors. […] The AF3 element has also been associated with COUP-TF binding (Scott et al (1996) supra). […] Vectors encoding the Gal4 DBD, Gal4 DBD-HNF-4α, or Gal4 DBD-COUP-TF fusion proteins (500 ng per well) were cotransfected with the mutant receptors, containing a substitution of a particular element within the Gal4 DBD, to determine whether they can rescue the PGC-1 activity. […] In contrast, cotransfection of a Gal4-COUP-TF construct produced only a partial restoration (approximately 20-30% of that achieved by HNF-4α), and cotransfection of the Gal4 DBD alone had virtually no effect on the PGC-1 mediated activation. Very similar results were obtained at the AF3 site.
The role of the glucocorticoid response elements in the PEPCK promoter was also examined. […] Fao hepatoma cells were transfected as described above for FIG. 4. Dexamethasone (dex, 1 μM final concentration) was added for the final 24 hours.

[5] = molecular target: T1, HNF-4α; experiment: Multimerized AF1 reporter assay in NIH 3T3 fibroblasts, HNF-4α; type: cell-based; settings: NIH 3T3, no hormone or ligand added
Experimental: as §1
(§2) To examine these functional interactions at the AF1 site with intact transcription factors, reporter gene assays were performed using PGC-1, wild-type HNF-4α and COUP-TF proteins, and a multimerized AF1 response element. To avoid interference with endogenous liver factors, these experiments were done in NIH 3T3 fibroblasts. Transfections were done as described above for FIG. 4. Neither HNF-4α, COUP-TF, nor PGC-1 activates these target sequences alone (FIG. 6).

[6] = tested on: FKHR; experiment: 3×IRS promoter-luciferase reporter, FKHR coactivation; type: cell-based; settings: PGC-1 cotransfected with wild-type or mutant FKHR
[7] = tested on: COUP-TF; experiment: Multimerized AF1 reporter assay in NIH 3T3 fibroblasts, COUP-TF; type: cell-based
Experimental: as §1, §2

[8] = tested on: FKHR; experiment: G6 Pase promoter-reporter, FKHR coactivation; type: cell-based; settings: PGC-1 cotransfected with FKHR
[9] = molecular target: T2, FKHR (Homo sapiens, UniProt Q12778); experiment: In vitro interaction with in vitro translated FKHR; type: binding; settings: GST fusion constructs
T2 construct: made in house; host or cells: in vitro translation
T2 sequence (Q12778 whole entry, species assumed, the tested form may be a part): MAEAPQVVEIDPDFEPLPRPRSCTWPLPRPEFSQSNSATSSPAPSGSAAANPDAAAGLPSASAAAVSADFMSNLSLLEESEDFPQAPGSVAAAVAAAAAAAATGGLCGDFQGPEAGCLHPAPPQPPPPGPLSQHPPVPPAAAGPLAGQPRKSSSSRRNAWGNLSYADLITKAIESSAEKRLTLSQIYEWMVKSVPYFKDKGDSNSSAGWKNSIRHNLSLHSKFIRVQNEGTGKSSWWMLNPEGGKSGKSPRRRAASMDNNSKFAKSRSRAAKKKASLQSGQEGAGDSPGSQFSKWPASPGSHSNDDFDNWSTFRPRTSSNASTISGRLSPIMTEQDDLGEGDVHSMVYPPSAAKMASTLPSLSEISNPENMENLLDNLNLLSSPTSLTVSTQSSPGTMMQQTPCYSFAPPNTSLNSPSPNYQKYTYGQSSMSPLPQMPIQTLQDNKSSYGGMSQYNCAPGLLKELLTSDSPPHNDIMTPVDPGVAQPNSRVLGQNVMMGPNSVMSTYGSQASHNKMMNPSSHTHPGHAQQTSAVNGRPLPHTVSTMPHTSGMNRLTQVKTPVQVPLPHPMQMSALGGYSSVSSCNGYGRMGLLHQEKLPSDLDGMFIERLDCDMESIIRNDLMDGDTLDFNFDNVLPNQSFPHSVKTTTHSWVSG

Row | Molecule | liver PEPCK mRNA (Northern) [1] | liver mRNA for glucose-6-phosphatase (Northern) [1] | activation of G6 Pase promoter-luciferase reporter ([2]; cotransfected with HNF-4α) | activation of G6 Pase promoter-luciferase reporter ([2]; transfected alone) | induction of gluconeogenic genes glucose-6-phosphatase and PEPCK [3] | activation of wild-type PEPCK promoter-reporter gene ([4]; Fao cells, 1 mg pCMV-PGC-1 per well, 48 hours) | reduction in PGC-1 mediated activation of the PEPCK reporter ([4]; P3 (I) site replaced by Gal4 DNA binding element) | coactivation of PEPCK promoter through the glucocorticoid receptor ([4]; dexamethasone 1 μM for the final 24 hours) | magnitude of PGC-1 activation ([4]; mutation in the AF2 or the CRE site) | reduction of PGC-1-mediated activation ([4]; mutation of the AF1 or AF3 site (or both)) | coactivation of HNF-4α on multimerized AF1 response element [5] | activation of 3×IRS promoter-luciferase reporter [6] | coactivation of COUP-TF on multimerized AF1 response element [7] | coactivation on wild type G6 Pase promoter-reporter [8] | physical interaction with FKHR [9]
1 | PGC-1: coactivator of nuclear receptors, expressed from transfected pCMV-PGC-1 or from adenovirus | increased expression | dramatic and uniform elevation | strong coactivation | no activation | in the presence, but not the absence, of HNF-4α | approximately 10 fold | 25% | in a ligand dependant manner | did not produce an appreciable effect | 50-60% | dramatically coactivates | can coactivate FKHR | no ability to coactivate | coactivated FKHR | 
2 | B1 |  |  |  |  |  |  |  |  |  |  |  |  |  |  | not
